Reference: patent US12539292B2, “BRM targeting compounds and associated methods of use” (Arvinas Operations, Inc., priority 2018, dated 2026)
Where two headings read alike, the source gives them in different places.

Biological target: T1, BRM (Homo sapiens, UniProt P51531)
T1 construct: In-Cell Western Screen of BRM Degradation in SW1573 Cells; endogenous in cells; host or cells: SW1573
Experiment: In-cell Western screen of BRM degradation in SW1573 cells (Dmax and DC50)
Assay type: cell-based
Conditions: BRM degradation, SW1573 cells, Table 2D; for Dmax: read-out: **Dmax (%) (% degraded)
Procedure, shortened: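 Overnight compound treatment (18-20 h, final DMSO 0.1%) of SW1573 cells in DMEM with 10% FBS precedes fixation and in-cell Western staining with 800/680 nm dye-labelled secondaries. Plate images give DC50 and maximal degradation.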

T1 sequence (P51531 whole entry): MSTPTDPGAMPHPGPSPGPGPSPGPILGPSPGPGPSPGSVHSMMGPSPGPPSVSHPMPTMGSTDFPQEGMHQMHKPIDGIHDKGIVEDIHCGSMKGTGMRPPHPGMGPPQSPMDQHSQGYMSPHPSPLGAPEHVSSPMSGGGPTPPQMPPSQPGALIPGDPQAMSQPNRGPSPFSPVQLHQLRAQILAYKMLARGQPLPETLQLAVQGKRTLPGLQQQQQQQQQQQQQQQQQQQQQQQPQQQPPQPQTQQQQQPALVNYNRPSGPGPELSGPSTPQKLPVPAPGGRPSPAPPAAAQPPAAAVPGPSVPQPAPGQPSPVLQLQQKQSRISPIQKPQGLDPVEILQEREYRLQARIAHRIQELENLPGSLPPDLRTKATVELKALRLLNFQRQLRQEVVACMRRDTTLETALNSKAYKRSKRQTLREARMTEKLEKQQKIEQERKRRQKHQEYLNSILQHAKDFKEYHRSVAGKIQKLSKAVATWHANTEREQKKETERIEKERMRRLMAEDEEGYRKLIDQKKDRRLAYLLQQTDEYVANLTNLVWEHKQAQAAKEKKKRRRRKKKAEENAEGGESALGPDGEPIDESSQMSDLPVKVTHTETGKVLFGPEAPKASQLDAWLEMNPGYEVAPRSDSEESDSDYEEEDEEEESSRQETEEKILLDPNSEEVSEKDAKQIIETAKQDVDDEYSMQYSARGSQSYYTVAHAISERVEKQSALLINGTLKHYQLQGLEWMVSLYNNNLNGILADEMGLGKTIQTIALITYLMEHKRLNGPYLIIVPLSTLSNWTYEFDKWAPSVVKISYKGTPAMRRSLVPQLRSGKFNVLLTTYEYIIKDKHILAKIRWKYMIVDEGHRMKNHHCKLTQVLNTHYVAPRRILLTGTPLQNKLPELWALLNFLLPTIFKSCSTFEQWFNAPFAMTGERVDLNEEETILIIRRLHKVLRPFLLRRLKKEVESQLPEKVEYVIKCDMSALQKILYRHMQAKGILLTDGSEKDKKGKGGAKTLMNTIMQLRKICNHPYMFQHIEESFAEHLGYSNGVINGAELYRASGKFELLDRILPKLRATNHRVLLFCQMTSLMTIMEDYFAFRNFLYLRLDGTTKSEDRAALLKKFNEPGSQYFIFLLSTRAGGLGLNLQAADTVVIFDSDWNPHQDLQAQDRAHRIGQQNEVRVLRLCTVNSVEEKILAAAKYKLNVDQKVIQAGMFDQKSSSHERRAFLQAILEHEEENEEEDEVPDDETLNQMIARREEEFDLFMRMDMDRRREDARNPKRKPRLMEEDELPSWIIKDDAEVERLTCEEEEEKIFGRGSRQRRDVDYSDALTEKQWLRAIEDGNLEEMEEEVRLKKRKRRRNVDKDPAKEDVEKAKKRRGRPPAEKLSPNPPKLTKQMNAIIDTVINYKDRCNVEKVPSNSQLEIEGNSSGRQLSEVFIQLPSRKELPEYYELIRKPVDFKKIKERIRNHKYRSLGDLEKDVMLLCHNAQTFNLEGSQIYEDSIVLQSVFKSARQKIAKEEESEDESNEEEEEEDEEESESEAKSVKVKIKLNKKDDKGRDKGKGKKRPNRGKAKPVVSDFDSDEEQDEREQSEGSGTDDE

For `Cc1ncsc1-c1ccc([C@H](C)NC(=O)[C@@H]2C[C@@H](O)CN2C(=O)[C@@H](c2cc(N3CCC(CN4CCC(Oc5cc(N6C7CCC6CN(c6cc(-c8ccccc8O)nnc6N)C7)ccn5)CC4)CC3)no2)C(C)C)cc1` [compound 602, (2S,4R)-1-((2R)-2-(3-(4-((4-((4-(3-(3-amino-6-(2-hydroxyphenyl)pyridazin-4-yl)-3,8-diazabicyclo[3.2.1]octan-8-yl)pyridin-2-yl)oxy)piperidin-1-yl)methyl)piperidin-1-yl)isoxazol-5-yl)-3-methylbutanoyl)-4-hydroxy-N-((S)-1-(4-(4-methylthiazol-5-yl)phenyl)ethyl)pyrrolidine-2-carboxamide], which Dmax is on record?
The Dmax was over 75%.

And the DC50 (read-out: *DC50)?
The DC50 was under 2.5 nM.

Which results are given for `Cc1ncsc1-c1ccc([C@H](C)NC(=O)[C@@H]2C[C@@H](O)CN2C(=O)[C@@H](c2cc(N3CCC(CN4CCC(COc5cc(N6C7CCC6CN(c6cc(-c8ccccc8O)nnc6N)C7)ccn5)CC4)CC3)no2)C(C)C)cc1` [compound 603, (2S,4R)-1-((2R)-2-(3-(4-((4-(((4-(3-(3-amino-6-(2-hydroxyphenyl)pyridazin-4-yl)-3,8-diazabicyclo[3.2.1]octan-8-yl)pyridin-2-yl)oxy)methyl)piperidin-1-yl)methyl)piperidin-1-yl)isoxazol-5-yl)-3-methylbutanoyl)-4-hydroxy-N-((S)-1-(4-(4-methylthiazol-5-yl)phenyl)ethyl)pyrrolidine-2-carboxamide]?
Dmax: > 75%; DC50 (read-out: *DC50): < 2.5 nM

Which results are given for `Cc1ncsc1-c1ccc([C@H](C)NC(=O)[C@@H]2C[C@@H](O)CN2C(=O)[C@@H](c2cc(N3CCC(CN4CCC(CCOc5cc(N6C7CCC6CN(c6cc(-c8ccccc8O)nnc6N)C7)ccn5)CC4)CC3)no2)C(C)C)cc1` [compound 604, (2S,4R)-1-((2R)-2-(3-(4-((4-(2-((4-(3-(3-amino-6-(2-hydroxyphenyl)pyridazin-4-yl)-3,8-diazabicyclo[3.2.1]octan-8-yl)pyridin-2-yl)oxy)ethyl)piperidin-1-yl)methyl)piperidin-1-yl)isoxazol-5-yl)-3-methylbutanoyl)-4-hydroxy-N-((S)-1-(4-(4-methylthiazol-5-yl)phenyl)ethyl)pyrrolidine-2-carboxamide]?
Dmax: > 75%; DC50 (read-out: *DC50): < 2.5 nM

`Cc1ncsc1-c1ccc([C@H](C)NC(=O)[C@@H]2C[C@@H](O)CN2C(=O)[C@@H](c2cc(N3CCC(CN4CCC(O[C@H]5C[C@H](Oc6cc(N7C8CCC7CN(c7cc(-c9ccccc9)nnc7N)C8)ccn6)C5)CC4)CC3)no2)C(C)C)cc1` [compound 605, (2S,4R)-1-((2R)-2-(3-(4-((4-((1r,3r)-3-((4-(3-(3-amino-6-phenylpyridazin-4-yl)-3,8-diazabicyclo[3.2.1]octan-8-yl)pyridin-2-yl)oxy)cyclobutoxy)piperidin-1-yl)methyl)piperidin-1-yl)isoxazol-5-yl)-3-methylbutanoyl)-4-hydroxy-N-((S)-1-(4-(4-methylthiazol-5-yl)phenyl)ethyl)pyrrolidine-2-carboxamide] was tested. Which DC50 did it give?
Its DC50 is over 30 nM.

Which Dmax does the source give for `Cc1nccn1-c1ccc([C@H](C)NC(=O)[C@@H]2C[C@@H](O)CN2C(=O)[C@@H](c2cc(N3CCC(CN4CCC(O[C@H]5C[C@H](Oc6cc(N7C8CCC7CN(c7cc(-c9ccccc9O)nnc7N)C8)ccn6)C5)CC4)CC3)no2)C(C)C)cc1` [compound 606, (2S,4R)-1-((2S)-2-(3-(4-((4-((1r,3r)-3-((4-(3-(3-amino-6-(2-hydroxyphenyl)pyridazin-4-yl)-3,8-diazabicyclo[3.2.1]octan-8-yl)pyridin-2-yl)oxy)cyclobutoxy)piperidin-1-yl)methyl)piperidin-1-yl)isoxazol-5-yl)-3-methylbutanoyl)-4-hydroxy-N-((S)-1-(4-(2-methyl-1H-imidazol-1-yl)phenyl)ethyl)pyrrolidine-2-carboxamide] here?
The Dmax was over 75%.

What about the DC50 (read-out: *DC50) of the same compound?
Its DC50 is 10 to 30 nM.

What does the source list for `Cc1nccn1-c1ccc([C@H](C)NC(=O)[C@@H]2C[C@@H](O)CN2C(=O)C(c2cc(N3CCC(CN4CCC(O[C@H]5C[C@H](Oc6cc(N7C8CCC7CN(c7cc(-c9ccccc9O)nnc7N)C8)ccn6)C5)CC4)CC3)no2)C(C)C)cc1` (stereo partly drawn) [compound 607, (2S,4R)-1-((2R)-2-(3-(4-((4-((1r,3r)-3-((4-(3-(3-amino-6-(2-hydroxyphenyl)pyridazin-4-yl)-3,8-diazabicyclo[3.2.1]octan-8-yl)pyridin-2-yl)oxy)cyclobutoxy)piperidin-1-yl)methyl)piperidin-1-yl)isoxazol-5-yl)-3-methylbutanoyl)-4-hydroxy-N-((S)-1-(4-(2-methyl-1H-imidazol-1-yl)phenyl)ethyl)pyrrolidine-2-carboxamide]?
Dmax: > 75%; DC50 (read-out: *DC50): < 2.5 nM

Which “**Dmax (%) (% degraded)” value does the source give for `Cc1ncsc1-c1ccc([C@H](C)NC(=O)[C@@H]2C[C@@H](O)CN2C(=O)[C@@H](c2cc(N3CCC(CN4CCN(CC5CC(Oc6cc(N7C8CC[C@@H]7CN(c7cc(-c9ccccc9O)nnc7N)C8)ccn6)C5)CC4)CC3)no2)C(C)C)cc1` (stereo partly drawn) [compound 608, (2S,4R)-1-((2R)-2-(3-(4-((4-(((1r,3r)-3-((4-(3-(3-amino-6-(2-hydroxyphenyl)pyridazin-4-yl)-3,8-diazabicyclo[3.2.1]octan-8-yl)pyridin-2-yl)oxy)cyclobutyl)methyl)piperazin-1-yl)methyl)piperidin-1-yl)isoxazol-5-yl)-3-methylbutanoyl)-4-hydroxy-N-((S)-1-(4-(4-methylthiazol-5-yl)phenyl)ethyl)pyrrolidine-2-carboxamide] here?
The value was “A (A > 75)”.

What about the DC50 (read-out: *DC50) of the same compound?
The DC50 was under 2.5 nM.

`Cc1ncsc1-c1ccc([C@H](C)NC(=O)[C@@H]2C[C@@H](O)CN2C(=O)[C@H](c2cc(N3CCC(CN4CCC(O[C@H]5C[C@H](CN6CCOC7(CCN(c8cc(-c9ccccc9O)nnc8N)CC7)C6)C5)CC4)CC3)no2)C(C)C)cc1` [compound 609, (2S,4R)-1-((S)-2-(3-(4-((4-((1r,3r)-3-((9-(3-amino-6-(2-hydroxyphenyl)pyridazin-4-yl)-1-oxa-4,9-diazaspiro[5.5]undecan-4-yl)methyl)cyclobutoxy)piperidin-1-yl)methyl)piperidin-1-yl)isoxazol-5-yl)-3-methylbutanoyl)-4-hydroxy-N-((S)-1-(4-(4-methylthiazol-5-yl)phenyl)ethyl)pyrrolidine-2-carboxamide] was tested. Which DC50 (read-out: *DC50) did it give?
The DC50 was over 30 nM.

`Cc1ncsc1-c1ccc([C@H](C)NC(=O)[C@@H]2C[C@@H](O)CN2C(=O)C(c2cc(N3CCC(CN4CCC(O[C@H]5C[C@H](CN6CCOC7(CCN(c8cc(-c9ccccc9O)nnc8N)CC7)C6)C5)CC4)CC3)no2)C(C)C)cc1` (stereo partly drawn) [compound 610, (2S,4R)-1-((R)-2-(3-(4-((4-((1r,3r)-3-((9-(3-amino-6-(2-hydroxyphenyl)pyridazin-4-yl)-1-oxa-4,9-diazaspiro[5.5]undecan-4-yl)methyl)cyclobutoxy)piperidin-1-yl)methyl)piperidin-1-yl)isoxazol-5-yl)-3-methylbutanoyl)-4-hydroxy-N-((S)-1-(4-(4-methylthiazol-5-yl)phenyl)ethyl)pyrrolidine-2-carboxamide] was tested. Which Dmax did it give?
The Dmax was over 75%.

What about the DC50 (read-out: *DC50) of the same compound?
The DC50 was under 2.5 nM.

`Cc1ncsc1-c1ccc([C@@H](NC(=O)[C@@H]2C[C@@H](O)CN2C(=O)[C@H](c2cc(N3CCC(CN4CCC(O[C@H]5C[C@H](Oc6cc(N7C8CCC7CN(c7cc(-c9ccccc9O)nnc7N)C8)ccn6)C5)CC4)CC3)no2)C(C)C)C(=O)N(C)C2CCC2)cc1` [compound 611, (2S,4R)-1-((2S)-2-(3-(4-((4-((1r,3r)-3-((4-(3-(3-amino-6-(2-hydroxyphenyl)pyridazin-4-yl)-3,8-diazabicyclo[3.2.1]octan-8-yl)pyridin-2-yl)oxy)cyclobutoxy)piperidin-1-yl)methyl)piperidin-1-yl)isoxazol-5-yl)-3-methylbutanoyl)-N-((R)-2-(cyclobutyl(methyl)amino)-1-(4-(4-methylthiazol-5-yl)phenyl)-2-oxoethyl)-4-hydroxypyrrolidine-2-carboxamide] was tested. Which DC50 (read-out: *DC50) did it give?
Its DC50 is over 30 nM.

`Cc1ncsc1-c1ccc([C@@H](NC(=O)[C@@H]2C[C@@H](O)CN2C(=O)[C@H](c2cc(N3CCC(CN4CCC(O[C@H]5C[C@H](Oc6cc(N7C8CCC7CN(c7cc(-c9ccccc9O)nnc7N)C8)ccn6)C5)CC4)CC3)no2)C(C)C)C(=O)N(C)C2CCC2)cc1` [compound 612, (2S,4R)-1-((2R)-2-(3-(4-((4-((1r,3r)-3-((4-(3-(3-amino-6-(2-hydroxyphenyl)pyridazin-4-yl)-3,8-diazabicyclo[3.2.1]octan-8-yl)pyridin-2-yl)oxy)cyclobutoxy)piperidin-1-yl)methyl)piperidin-1-yl)isoxazol-5-yl)-3-methylbutanoyl)-N-((R)-2-(cyclobutyl(methyl)amino)-1-(4-(4-methylthiazol-5-yl)phenyl)-2-oxoethyl)-4-hydroxypyrrolidine-2-carboxamide] was tested. Which Dmax did it give?
The Dmax was over 75%.

What about the DC50 (read-out: *DC50) of the same compound?
Its DC50 is under 2.5 nM.

`Cc1ncsc1-c1ccc([C@H](C)NC(=O)[C@@H]2C[C@@H](O)CN2C(=O)[C@H](c2cc(OCCCOc3cc(N4C5CCC4CN(c4cc(-c6ccccc6O)nnc4N)C5)ccn3)no2)C(C)C)cc1` [compound 613, (2S,4R)-1-((2S)-2-(3-(3-((4-(3-(3-amino-6-(2-hydroxyphenyl)pyridazin-4-yl)-3,8-diazabicyclo[3.2.1]octan-8-yl)pyridin-2-yl)oxy)propoxy)isoxazol-5-yl)-3-methylbutanoyl)-4-hydroxy-N-((S)-1-(4-(4-methylthiazol-5-yl)phenyl)ethyl)pyrrolidine-2-carboxamide] was tested. Which DC50 (read-out: *DC50) did it give?
The DC50 was over 30 nM.

`Cc1ncsc1-c1ccc([C@H](C)NC(=O)[C@@H]2C[C@@H](O)CN2C(=O)[C@@H](c2cc(OCCCOc3cc(N4C5CCC4CN(c4cc(-c6ccccc6O)nnc4N)C5)ccn3)no2)C(C)C)cc1` [compound 614, (2S,4R)-1-((2R)-2-(3-(3-((4-(3-(3-amino-6-(2-hydroxyphenyl)pyridazin-4-yl)-3,8-diazabicyclo[3.2.1]octan-8-yl)pyridin-2-yl)oxy)propoxy)isoxazol-5-y1)-3-methylbutanoyl)-4-hydroxy-N-((S)-1-(4-(4-methylthiazol-5-yl)phenyl)ethyl)pyrrolidine-2-carboxamide] was tested. Which Dmax did it give?
Its Dmax is over 75%.

And the DC50 (read-out: *DC50)?
Its DC50 is under 2.5 nM.
